# Assay results taken from patent publication US10889573B2, “Anthelmintic quinoline-3-carboxamide derivatives” (Bayer Animal Health GMBH, priority 2016, dated 2021).
# pEC50: −log10 of the molar value.
# What was measured:
# [1] = test system: Nippostrongylus brasiliensis; test: In vitro assay 2: Nippostrongylus brasiliensis (NIPOBR), acetylcholine esterase readout; details: read-out: activity (reduction of AChE compared to negative control); for inhibition at 1 µg/mL: 1 μg/ml; for inhibition at 10 µg/mL: 10 μg/ml
# Procedure, shortened: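 Readout was acetylcholine esterase activity released into the medium, compared with negative control, after exposing adult worms to compounds at final 10 ppm (10 μg/ml) or 1 ppm (1 μg/ml). Worms were first washed in antibiotic/amphotericin B-containing saline; compounds were dissolved in DMSO.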
# [2] = test system: Dirofilaria immitis microfilariae; test: In vitro assay 3: Dirofilaria immitis microfilariae (DIROIM L1), motility; details: 72 h, read-out: EC50 (reduction of motility), 72 h incubation
# [3] = test system: Dirofilaria immitis third-stage larvae; test: In vitro assay 4: Dirofilaria immitis (DIROIM L4), motility; details: 72 h, read-out: EC50 (reduction of motility)
# [4] = test system: Litomosoides sigmodontis third-stage larvae; details: 72 h, read-out: EC50 (reduction of motility)
# Protocol: In Vitro Assay 5: Litomosoides sigmodontis (LTMOSI L3)
# 10 Litomosoides sigmodontis third-stage larvae, which were freshly isolated from the pleural cavity of an infected rodent, were added to wells of a microtitre plate containing a nutrient medium and the test compound in DMSO. Compounds were tested in concentration-response assay in duplicate. Larvae exposed to DMSO and no test compounds were used as negative controls. Larvae were evaluated after 72 h of incubation with the compound. Efficacy was determined as the reduction of motility in comparison to the negative control. Based on the evaluation of a wide concentration range, concentration-response curves as well as EC50-values were calculated.
# Cooperia curticei = details: Cooperia curticei, 120 h, read-out: activity (larval mortality)
# Protocol: In Vitro Assay 6: Cooperia curticei (COOPCU L3)
# Solvent: dimethyl sulfoxide
# Approximately 40 nematode larvae (Cooperia curticei) are transferred into a test tube containing the compound solution.
# After 5 days percentage of larval mortality is recorded. 100% efficacy means all larvae are killed; 0% efficacy means no larvae are killed.
# Haemonchus contortus = details: 120 h, read-out: activity (larval mortality)
# Protocol: In Vitro Assay 7: Haemonchus contortus (HAEMCO L3)
# Solvent: dimethyl sulfoxide
# Approximately 40 larvae of the red stomach worm (Haemonchus contortus) are transferred into a test tube containing compound solution.
# After 5 days the percentage of larval mortality is recorded. 100% efficacy means all larvae are killed, 0% efficacy means no larvae are killed.
# C. elegans Slo-1a = C. elegans Slo-1a (Caenorhabditis elegans, UniProt Q95V25); details: pE50 (negative decadic logarithm of EC50), CHO cells expressing C. elegans Slo-1a, voltage sensitive dye
# Chain of C. elegans Slo-1a (Q95V25 whole entry): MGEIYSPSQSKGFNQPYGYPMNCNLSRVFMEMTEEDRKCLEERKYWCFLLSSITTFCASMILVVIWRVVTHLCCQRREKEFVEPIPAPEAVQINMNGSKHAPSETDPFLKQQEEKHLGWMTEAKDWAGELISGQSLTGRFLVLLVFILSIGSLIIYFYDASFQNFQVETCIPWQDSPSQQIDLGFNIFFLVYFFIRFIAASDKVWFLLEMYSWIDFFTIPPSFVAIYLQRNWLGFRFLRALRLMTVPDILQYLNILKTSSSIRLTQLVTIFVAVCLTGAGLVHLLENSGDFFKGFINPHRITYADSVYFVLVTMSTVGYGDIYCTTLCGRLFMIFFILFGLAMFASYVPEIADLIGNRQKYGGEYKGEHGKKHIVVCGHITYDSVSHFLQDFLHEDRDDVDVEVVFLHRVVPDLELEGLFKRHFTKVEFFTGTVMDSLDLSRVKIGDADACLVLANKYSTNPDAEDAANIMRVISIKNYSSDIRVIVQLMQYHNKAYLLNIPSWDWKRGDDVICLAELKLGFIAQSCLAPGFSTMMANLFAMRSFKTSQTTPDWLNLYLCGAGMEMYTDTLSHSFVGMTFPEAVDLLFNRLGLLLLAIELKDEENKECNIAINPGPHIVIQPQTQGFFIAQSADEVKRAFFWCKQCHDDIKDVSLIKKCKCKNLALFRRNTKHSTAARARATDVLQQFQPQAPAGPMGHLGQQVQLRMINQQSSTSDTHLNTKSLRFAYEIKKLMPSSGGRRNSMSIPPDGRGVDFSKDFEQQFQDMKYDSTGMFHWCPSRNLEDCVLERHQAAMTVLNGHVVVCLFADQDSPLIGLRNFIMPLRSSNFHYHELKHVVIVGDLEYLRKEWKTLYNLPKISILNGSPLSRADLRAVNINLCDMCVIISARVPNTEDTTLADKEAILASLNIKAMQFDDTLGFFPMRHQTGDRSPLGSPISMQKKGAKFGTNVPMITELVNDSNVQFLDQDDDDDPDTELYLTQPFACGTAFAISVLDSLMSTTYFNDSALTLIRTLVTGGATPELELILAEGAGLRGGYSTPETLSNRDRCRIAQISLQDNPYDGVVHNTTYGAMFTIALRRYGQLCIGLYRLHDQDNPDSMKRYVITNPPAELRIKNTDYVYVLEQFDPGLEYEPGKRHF
# Protocol: In Vitro Assay 1: C. elegans Slo-1a—Action at a Recombinant C. elegans Cell Line
# Cells were cultured at 37° C. and 5% CO2 in MEMalpha with Gutamax I (Invitrogen, Nr.: 32571), supplemented with 10% (v/v) heat inactivated fetal bovine serum (Invitrogen, Nr.: 10500), G418 (1 mg/ml, Invitrogen, Nr.: 10131). Cells were detached using Accutase (Sigma, Nr.: A6964).
# Membrane Potential Measurements
# Laboratory compound testing was performed on 384-well microtiter plates (MTPs, Greiner, Nr.: 781092). 8000 cells/well were plated onto 384-well MTPs and cultured for 20 to 24 hours at 37° C. and 5% CO2. After removal of the cell culture medium, the cells were washed once with tyrode (150 mM NaCl, 0.3 mM KCl, 2 mM CaCl2, 1 mM MgCl2, 0.8 mM NaH2PO4, 5 mM Glucose, 28 mM Hepes, pH 7.4) and then loaded with the voltage sensitive dye of the Membrane Potential Assay Kit diluted in tyrode for 1 h at room temperature.
# After starting the measurement of fluorescence using a FLIPR Tetra (Molecular Devices, Exc. 510-545 nm, Emm. 565-625 nm), test compounds were added followed by the addition of KCl tyrode (final assay concentration: 70 mM KCl, 2 mM CaCl2, 1 mM MgCl2, 0.8 mM NaH2PO4, 5 mM Glucose, 28 mM Hepes, pH 7.4, including the voltage sensitive dye). The measurement was completed after 7 minutes.
# The data were evaluated by using the ActivityBase XLfit software (IDBS) for curve fitting and calculation of the half-maximal effective concentration (EC50) and are reported as negative decadic logarithm (pE50).
# [5] = log P by HPLC on reversed phase columns (Method L0)
# Protocol: Measurement of log P values was performed according to EEC directive 79/831 Annex V.A8 by HPLC (High Performance Liquid Chromatography) on reversed phase columns with the following methods: • ^[a] log P value is determined by measurement of LC-UV, in an acidic range, with 0.1% formic acid in water and acetonitrile as eluent (linear gradient from 10% acetonitrile to 95% acetonitrile). • ^[b] log P value is determined by measurement of LC-UV, in a neutral range, with 0.001 molar ammonium acetate solution in water and acetonitrile as eluent (linear gradient from 10% acetonitrile to 95% acetonitrile).
# Calibration was done with straight-chain alkan-2-ones (with 3 to 16 carbon atoms) with known log P values (measurement of log P values using retention times with linear interpolation between successive alkanones).
Structure (SMILES),inhibition at 1 µg/mL [1],inhibition at 10 µg/mL [1],EC50 [2],EC50 [3],EC50 [4],mortality at 4 ppm (Cooperia curticei),mortality at 20 ppm (Cooperia curticei),mortality at 4 ppm (Haemonchus contortus),mortality at 20 ppm (Haemonchus contortus),pEC50 (C. elegans Slo-1a),chromatographic logP [5]
CN(C)c1c(C(=O)N[C@H]2CCOc3ccccc32)cnc2c(-c3cc(Cl)ccc3F)cccc12 [Example 37],> 80%,> 80%,< 0.1 µg/mL,< 0.1 µg/mL,< 0.1 µg/mL,100%,100%,100%,100%,> 8.50,–
"O=C(N[C@H]1CCOc2ccccc21)c1cnc2c(-c3cccc(Cl)c3Cl)cccc2c1N1CCOCC1 [Example 52, 8-(2,3-dichlorophenyl)-N-[(4S)-3,4-dihydro-2H-chromen-4-yl]-4-(morpholin-4-yl)quinoline-3-carboxamide]",> 80%,> 80%,< 0.1 µg/mL,< 0.1 µg/mL,< 0.1 µg/mL,100%,100%,100%,100%,> 8.50,–
COc1c(F)ccc(-c2cccc3c(N4CCOCC4)c(C(=O)N[C@H]4CCOc5ccccc54)cnc23)c1F [Example 53],> 80%,> 80%,< 0.1 µg/mL,< 0.1 µg/mL,< 0.1 µg/mL,100%,100%,80%,100%,> 8.50,–
O=C(N[C@H]1CCOc2ccccc21)c1cnc2c(-c3cc(F)cc(Cl)c3)c(F)ccc2c1N1CCOCC1 [Example 143],> 80%,> 80%,< 0.1 µg/mL,< 0.1 µg/mL,< 0.1 µg/mL,100%,100%,100%,100%,> 8.50,–
CCOc1c(C(=O)N[C@H]2CCOc3ccccc32)cnc2c(-c3cc(Cl)cc(Cl)c3)cccc12 [Example 341],> 80%,> 80%,< 0.1 µg/mL,< 0.1 µg/mL,< 0.1 µg/mL,90%,100%,80%,80%,> 8.50,–
"CCc1c(C(=O)N[C@H]2CCOc3ccccc32)cnc2c(-c3cc(Cl)cc(Cl)c3)cccc12 [Example 350, 8-(3,5-dichlorophenyl)-N-[(4S)-3,4-dihydro-2H-chromen-4-yl]-4-ethyl quino-line-3-carboxamide]",> 80%,–,< 0.1 µg/mL,< 0.1 µg/mL,< 0.1 µg/mL,100%,100%,100%,100%,> 8.50,5.06
O=C(N[C@H]1CCOc2ccccc21)c1cnc2c(-c3cc(Cl)cc(Cl)c3)cccc2c1N1CC(F)(F)C1 [Example 394],> 80%,–,< 0.1 µg/mL,< 0.1 µg/mL,< 0.1 µg/mL,–,80%,80%,80%,7.50 to 8.50,–
O=C(N[C@H]1CCOc2ccccc21)c1cnc2c(-c3cc(Cl)cc(Cl)c3)cccc2c1-c1ccncc1 [Example 396],> 80%,–,< 0.1 µg/mL,< 0.1 µg/mL,< 0.1 µg/mL,100%,100%,90%,100%,> 8.50,–
